In patent US8859464B2, “Nitrogen containing isethionic acid salts in field ready spray and tank mixes” (Huntsman Petrochemical L LC, priority 2009, dated 2014):

System: target weed species
Experiment: Water conditioning efficacy in greenhouse evaluation of isopropylamine glyphosate spray tank solutions in hard water
Type: in vivo
Conditions: aqueous spray tank solutions of isopropylamine glyphosate, standard hard water, absence of any surfactant, compared with ammonium sulfate
Procedure: Isethionic acid (Example 1) and ten neutralization products of isethionic acid (Examples 2-11) were used to treat aqueous spray tank solutions of isopropylamine glyphosate in order to measure the water conditioning efficacy of isethionic acid and the other isethionates. Isethionic acid was neutralized with sodium (Examples 2, 6, and 7), ammonia (Examples 3-5) and tallow amine ethoxylates (Examples 8-11—SURFONIC® T-5 surfactant). These candidates were evaluated against the standard agricultural water conditioner, ammonium sulfate in an aqueous tank mix of isopropylamine glyphosate (Control Example). Specifically, the candidates were tested for their ability to condition water as a function of the suppression of water hardness inhibition of pesticides, such as glyphosate. All evaluations were run in the absence of any surfactant in standard hard water as defined by the World Health Organization standard hard waters. The evaluations were run in greenhouse conditions over a variety of plant species, including determining injury to crop species. The reported data was percent control of target weed species and percent injury to crop species. All evaluations (except for one industry standard) were conducted in the absence of any surfactant.

SMILES: O=S(=O)(O)CCO [isethionic acid, Isethionic Acid]
- water conditioning efficacy (suppression of water hardness inhibition of glyphosate): functioned at a level comparable to that of the agricultural industry standard ammonium sulfate
